The source of these data is patent US5643870A, “O-acylated cyclosporins” (Sandoz Ltd., priority 1992, dated 1997).

Each structure is given as a SMILES string. ≈ marks a conversion by molar mass, not a printed value.

In experiment [1] the test system is plaque forming, i.e. antibody producing, cells (lymphocytes from the spleen of OFI mice co-cultured with sheep erythrocytes). The format is cell-based. The conditions noted are these: 3 days co-culture with sheep erythrocytes. Here is the method: Ca. 10^7 lymphocytes from the spleen of OFI, female mice are co-cultured with ca. 3×10^7 sheep erythrocytes for 3 days. Test substance is added to the incubation medium in varying concentrations. Lymphocytes are harvested and plated onto agar with fresh sheep erythrocytes as antigen. Sensitised lymphocytes secrete antibody that coats the erythrocytes, which lyse to form a plaque in the presence of complement. Activity is assessed by reduction in the number of plaque forming, i.e. antibody producing, cells. Cyclosporins in accordance with the present invention reduce the numbers of plaque forming cells at concentrations of the order of from 0.03 to 0.05 μg/ml.

Experiment [2] has as its system lymphocytes from the spleen of Balb/c mice incubated with lymphocytes from the spleen of CBA mice.
Procedure: 0.5×10^6 lymphocytes from the spleen of female (8-10 weeks) Balb/c mice are incubated for 5 days in 0.2 ml cell growth medium with ca. 0.5×10^6 lymphocytes from the spleen of female (8-10 weeks) CBA mice. Test substance is added to the medium at various concentrations. Activity is assessed by ability to suppress proliferation associated DNA synthesis as determined by incorporation of radiolabelled thymidine.

With `CC[C@@H]1NC(=O)[C@H]([C@H](O)[C@H](C)C/C=C/COC(=O)OC)N(C)C(=O)[C@H](C(C)C)N(C)C(=O)[C@H](CC(C)C)N(C)C(=O)[C@H](CC(C)C)N(C)C(=O)[C@@H](C)NC(=O)[C@H](C)NC(=O)[C@H](CC(C)C)N(C)C(=O)[C@H](C(C)C)NC(=O)[C@H](CC(C)C)N(C)C(=O)CN(C)C1=O` [Example 1, [(8'-Methoxycarbonyloxy)MeBmt]^1 -Ciclosporin], the “IC50, test 1.2 Mishell-Dutton test (number of plaque forming cells)” value in experiment [1] was 0.043 µg/mL. Moreover, the “IC50, test 1.1 murine mixed lymphocyte reaction (thymidine incorporation)” value in experiment [2] is 0.015 µg/mL (≈ 0.0117 µM).
